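Exposure lasted 48 hours, with cells grown in 96-well plates and compounds tested at five concentrations. GI50 = concentration required for 50% inhibition of growth.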 Active and inactive are the calls of the source. Rule as the data show it: active = GI50 up to about 1.1 µM and inactive = higher.
How the values were obtained:
Assay in all cases: inhibition of tumour cell growth, NCI panel, 48 h
[1] = tested on: IGROV-1
[2] = tested on: SK-MEL-28
[3] = tested on: NCI-H226
[4] = tested on: LOX IMVI
[5] = tested on: TK-10
[6] = tested on: U-251
[7] = tested on: SK-MEL-5
[8] = tested on: A549
[9] = tested on: NCI-H23
[10] = tested on: 786-0
[11] = tested on: EKVX
[12] = tested on: HCT-15
[13] = tested on: OVCAR-3
[14] = tested on: HCC 2998
[15] = tested on: SF-295
[16] = tested on: UACC-257
[17] = tested on: UACC-62
[18] = tested on: Malme-3M
[19] = tested on: NCI-H522

Compound | GI50 [1] | GI50 [2] | GI50 [3] | GI50 [4] | GI50 [5] | GI50 [6] | GI50 [7] | GI50 [8] | GI50 [9] | GI50 [10] | GI50 [11] | GI50 [12] [µM] | GI50 [13] | GI50 [14] | GI50 [15] | GI50 [16] | GI50 [17] | GI50 [18] | GI50 [19]
CC1(C)CC(=O)C(=CNc2nc(-c3ccccc3)cs2)C(=O)C1 | 26.6 µM (inactive) | 26.7 µM (inactive) | 29 µM (inactive) | > 100 µM (inactive) | 24 µM (inactive) | 29.3 µM (inactive) | 38.1 µM (inactive) | 49 µM (inactive) | 32.4 µM (inactive) | > 100 µM (inactive) | 26.2 µM (inactive) | 20.2 | 40.7 µM (inactive) | 31.2 µM (inactive) | 57.9 µM (inactive) | 35.1 µM (inactive) | – | – | –
CN(C)CC1(C)CC/C(=C\c2ccccc2)C1=O (stereo not given) | > 100 µM (inactive) | > 100 µM (inactive) | > 100 µM (inactive) | > 100 µM (inactive) | > 100 µM (inactive) | > 100 µM (inactive) | > 100 µM (inactive) | > 100 µM (inactive) | > 100 µM (inactive) | > 100 µM (inactive) | – | 63 | > 100 µM (inactive) | > 100 µM (inactive) | > 100 µM (inactive) | > 100 µM (inactive) | > 100 µM (inactive) | > 100 µM (inactive) | 39.8 µM (inactive)
CC(C)(CO)N1C(=O)c2ccccc2C1(O)c1ccc(Cl)cc1 (stereo not given) | > 100 µM (inactive) | > 100 µM (inactive) | > 100 µM (inactive) | – | > 100 µM (inactive) | > 100 µM (inactive) | > 100 µM (inactive) | > 100 µM (inactive) | > 100 µM (inactive) | > 100 µM (inactive) | > 100 µM (inactive) | > 100 | 88.7 µM (inactive) | > 100 µM (inactive) | > 100 µM (inactive) | > 100 µM (inactive) | > 100 µM (inactive) | > 100 µM (inactive) | > 100 µM (inactive)
CC(NC(=O)C(N)CC(=O)O)NC(=O)N1CCOCC1 (stereo not given) | > 100 µM (inactive) | > 100 µM (inactive) | > 100 µM (inactive) | > 100 µM (inactive) | > 100 µM (inactive) | > 100 µM (inactive) | > 100 µM (inactive) | > 100 µM (inactive) | > 100 µM (inactive) | > 100 µM (inactive) | > 100 µM (inactive) | > 100 | > 100 µM (inactive) | – | > 100 µM (inactive) | > 100 µM (inactive) | 19.1 µM (inactive) | > 100 µM (inactive) | > 100 µM (inactive)
CC(C)CC1[C@@H](OCc2ccccc2)COS(=O)(=O)N1Cc1ccccc1 (stereo not given in full) | 81.7 µM (inactive) | > 100 µM (inactive) | 86.7 µM (inactive) | > 100 µM (inactive) | > 100 µM (inactive) | > 100 µM (inactive) | 83.2 µM (inactive) | 67.6 µM (inactive) | 20.7 µM (inactive) | > 100 µM (inactive) | > 100 µM (inactive) | 74.5 | > 100 µM (inactive) | – | 27.6 µM (inactive) | > 100 µM (inactive) | > 100 µM (inactive) | 62.5 µM (inactive) | 24.4 µM (inactive)
C/C(=N\NC(=O)CC(=O)Nc1ccc(Cl)cc1)c1cc2ccccc2oc1=O | > 100 µM (inactive) | > 100 µM (inactive) | > 100 µM (inactive) | > 100 µM (inactive) | > 100 µM (inactive) | > 100 µM (inactive) | > 100 µM (inactive) | > 100 µM (inactive) | > 100 µM (inactive) | > 100 µM (inactive) | > 100 µM (inactive) | > 100 | > 100 µM (inactive) | – | > 100 µM (inactive) | > 100 µM (inactive) | > 100 µM (inactive) | > 100 µM (inactive) | > 100 µM (inactive)
C/C(=N\n1c(Cc2ccccc2)n[nH]c1=O)c1ccccc1 | > 100 µM (inactive) | > 100 µM (inactive) | > 100 µM (inactive) | > 100 µM (inactive) | > 100 µM (inactive) | > 100 µM (inactive) | > 100 µM (inactive) | > 100 µM (inactive) | > 100 µM (inactive) | > 100 µM (inactive) | 94.4 µM (inactive) | > 100 | – | – | – | > 100 µM (inactive) | > 100 µM (inactive) | > 100 µM (inactive) | > 100 µM (inactive)
O=[N+]([O-])c1ccc(N/N=C2/CC3=C2CCCCCCCCCC3)c([N+](=O)[O-])c1 | > 100 µM (inactive) | > 100 µM (inactive) | > 100 µM (inactive) | – | 94.4 µM (inactive) | > 100 µM (inactive) | > 100 µM (inactive) | > 100 µM (inactive) | > 100 µM (inactive) | 80.9 µM (inactive) | > 100 µM (inactive) | > 100 | > 100 µM (inactive) | > 100 µM (inactive) | > 100 µM (inactive) | > 100 µM (inactive) | > 100 µM (inactive) | > 100 µM (inactive) | > 100 µM (inactive)
